# Target: T1, N-terminally GST-tagged human full length recombinant Mps-1 kinase (Homo sapiens, UniProt P33981)
# T1 construct: N-terminally GST-tagged human full length recombinant Mps-1 kinase; purchased Invitrogen, Karslruhe, Germany PV4071
# T1 sequence (P33981 1-857): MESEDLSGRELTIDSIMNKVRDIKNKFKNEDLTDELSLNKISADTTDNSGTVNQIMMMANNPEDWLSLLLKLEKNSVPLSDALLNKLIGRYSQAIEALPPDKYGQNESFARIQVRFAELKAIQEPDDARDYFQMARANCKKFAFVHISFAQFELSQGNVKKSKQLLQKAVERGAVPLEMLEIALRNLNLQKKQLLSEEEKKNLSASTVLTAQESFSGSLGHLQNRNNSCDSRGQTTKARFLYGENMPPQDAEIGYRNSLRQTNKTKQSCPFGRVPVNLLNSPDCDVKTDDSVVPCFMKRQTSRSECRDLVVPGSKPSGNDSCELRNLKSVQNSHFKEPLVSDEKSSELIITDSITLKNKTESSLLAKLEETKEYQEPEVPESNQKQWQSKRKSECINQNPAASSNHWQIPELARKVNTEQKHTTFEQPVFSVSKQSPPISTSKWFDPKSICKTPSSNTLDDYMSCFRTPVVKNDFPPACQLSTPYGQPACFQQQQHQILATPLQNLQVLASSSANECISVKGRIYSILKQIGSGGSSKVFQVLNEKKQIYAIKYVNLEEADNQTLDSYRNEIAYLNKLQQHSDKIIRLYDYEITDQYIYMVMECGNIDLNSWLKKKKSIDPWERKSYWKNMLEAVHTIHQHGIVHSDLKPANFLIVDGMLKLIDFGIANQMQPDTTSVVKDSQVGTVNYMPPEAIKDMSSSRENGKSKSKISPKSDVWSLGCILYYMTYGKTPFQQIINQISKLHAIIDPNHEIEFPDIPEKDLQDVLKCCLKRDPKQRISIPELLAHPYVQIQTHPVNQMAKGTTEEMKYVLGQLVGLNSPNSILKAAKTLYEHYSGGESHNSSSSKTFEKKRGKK
# Assay: Mps-1 kinase assay (TR-FRET)
# Format: biochemical
# Conditions: Mps1 IC50 [nM], 10 μM ATP, 1 μM peptide substrate, 60 min at 22° C.
# How it was run: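 GST-Mps-1 (full length, N-term tag) ~1 nM final, linear-range adjusted per lot; biotinylated peptide substrate. Detection: Eu-anti-pSer/Thr donor → SA-XLent acceptor TR-FRET, 1 h, 22° C. Inhibition of kinase activity.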
row,Compound,IC50 [nM]
1,"Cc1cc(-c2cnc3c(NCC4CCOCC4)cc(Oc4cccc(F)c4)nn23)ccc1C(=O)NC1CC1 [Example 323, N-cyclopropyl-4-{6-(3-fluorophenoxy)-8-[(tetra-hydro-2H-pyran-4-yl-methyl)amino]imidazo[1,2-b]pyridazin-3-yl}-2-methylbenzamide]",0.2
2,"CCNC(=O)c1ccc(-c2cnc3c(NCCN4CCOCC4)cc(Oc4ccc(OC)cc4F)nn23)cc1C [Example 591, N-ethyl-4-[6-(2-fluoro-4-methoxyphenoxy)-8-{[2-(morpholin-4-yl)ethyl]amino}imidazo[1,2-b]pyridazin-3-yl]-2-methylbenzamide]",2.5
3,"CCNC(=O)c1ccc(-c2cnc3c(NCCN4CCOCC4)cc(Oc4cc(F)ccc4C)nn23)cc1C [Example 592, N-ethyl-4-[6-(5-fluoro-2-methylphenoxy)-8-{[2-(morpholin-4-yl)ethyl]amino}imidazo[1,2-b]pyridazin-3-yl]-2-methylbenzamide]",1.5
4,"CCNC(=O)c1ccc(-c2cnc3c(NCC4CCOCC4)cc(Oc4ccc(F)c(F)c4)nn23)cc1C [Example 594, 4-{6-(3,4-difluorophenoxy)-8-[(tetrahydro-2H-pyran-4-ylmethyl)amino]imidazo[1,2-b]pyridazin-3-yl}-N-ethyl-2-methylbenzamide]",< 10
5,"CCNC(=O)c1ccc(-c2cnc3c(NCC4CCOCC4)cc(Oc4ccccc4C)nn23)cc1C [Example 596, N-ethyl-2-methyl-4-{6-(2-methylphenoxy)-8-[(tetrahydro-2H-pyran-4-ylmethyl)a-mino]imidazo[1,2-b]pyridazin-3-yl}benzamide]",1.1
6,"CCNC(=O)c1ccc(-c2cnc3c(NCC4CCOCC4)cc(Oc4ccc(OC)cc4)nn23)cc1C [Example 597, N-ethyl-4-{6-(4-methoxyphenoxy)-8-[(tetrahydro-2H-pyran-4-ylmethyl)a-mino]imidazo[1,2-b]pyridazin-3-yl}-2-methylbenzamide]",1.1
7,"CCNC(=O)c1ccc(-c2cnc3c(NCC4CCOCC4)cc(Oc4cc(F)ccc4C)nn23)cc1C [Example 599, N-ethyl-4-{6-(5-fluoro-2-methylphenoxy)-8-[(tetrahydro-2H-pyran-4-ylmethyl)a-mino]imidazo[1,2-b]pyridazin-3-yl}-2-methylbenzamide]",1
8,"CCNC(=O)c1ccc(-c2cnc3c(NCC4CCOCC4)cc(Oc4ccc(OC)c(F)c4)nn23)cc1C [Example 600, N-ethyl-4-{6-(3-fluoro-4-methoxyphenoxy)-8-[(tetrahydro-2H-pyran-4-ylmethyl)a-mino]imidazo[1,2-b]pyridazin-3-yl}-2-methylbenzamide]",< 1
9,"CCNC(=O)c1ccc(-c2cnc3c(NCCC(F)(F)F)cc(Oc4ccc(OC)cc4F)nn23)cc1C [Example 602, N-ethyl-4-{6-(2-fluoro-4-methoxyphenoxy)-8-[(3,3,3-trifluoropropyl)a-mino]imidazo[1,2-b]pyridazin-3-yl}-2-methylbenzamide]",< 1
10,"CCNC(=O)c1ccc(-c2cnc3c(NCC(F)F)cc(Oc4ccc(OC)cc4F)nn23)cc1C [Example 605, 4-{8-[(2,2-difluoroethyl)amino]-6-(2-fluoro-4-methoxyphen-oxy)imidazo[1,2-b]pyridazin-3-yl}-N-ethyl-2-methylbenzamide]",1.2
11,"CCNC(=O)c1ccc(-c2cnc3c(NCCOC)cc(Oc4ccc(F)c(F)c4)nn23)cc1C [Example 607, 4-{6-(3,4-difluorophenoxy)-8-[(2-methoxyethyl)a-mino]imidazo[1,2-b]pyridazin-3-yl}-N-ethyl-2-methylbenzamide]",3.7
12,"CCNC(=O)c1ccc(-c2cnc3c(NCCOC)cc(Oc4ccc(OC)c(F)c4)nn23)cc1C [Example 610, N-ethyl-4-{6-(3-fluoro-4-methoxyphenoxy)-8-[(2-methoxyethyl)a-mino]imidazo[1,2-b]pyridazin-3-yl}-2-methylbenzamide]",< 1

# The remaining lines, values ahead:
row,IC50 [nM],Compound
1,0.2,"Cc1cc(-c2cnc3c(NCCC(F)(F)F)cc(Oc4cccc(F)c4)nn23)ccc1C(=O)NC1CC1 [Example 80, N-cyclopropyl-4-{6-(3-fluorophenoxy)-8-[(3,3,3-trifluoropropyl)amino]imidazo[1,2-b]pyridazin-3-yl}-2-methylbenzamide]"
2,9,"CCNC(=O)c1ccc(-c2cnc3c(NCCN4CCOCC4)cc(Oc4ccccc4)nn23)cc1C [Example 593, N-ethyl-2-methyl-4-(8-{[2-(morpholin-4-yl)ethyl]amino}-6-phenoxyimidazo[1,2-b]pyridazin-3-yl)benzamide]"
3,< 1,"CCNC(=O)c1ccc(-c2cnc3c(NCC4CCOCC4)cc(Oc4ccc(OC)cc4F)nn23)cc1C [Example 598, N-ethyl-4-{6-(2-fluoro-4-methoxyphenoxy)-8-[(tetrahydro-2H-pyran-4-ylmethyl)a-mino]imidazo[1,2-b]pyridazin-3-yl}-2-methylbenzamide]"
4,< 1,"CCNC(=O)c1ccc(-c2cnc3c(NCCC(F)(F)F)cc(Oc4ccccc4C)nn23)cc1C [Example 601, N-ethyl-2-methyl-4-{6-(2-methylphenoxy)-8-[(3,3,3-trifluoropropyl)a-mino]imidazo[1,2-b]pyridazin-3-yl}benzamide]"
5,< 1,"CCNC(=O)c1ccc(-c2cnc3c(NCCC(F)(F)F)cc(Oc4cc(F)ccc4C)nn23)cc1C [Example 603, N-ethyl-4-{6-(5-fluoro-2-methylphenoxy)-8-[(3,3,3-trifluoropropyl)a-mino]imidazo[1,2-b]pyridazin-3-yl}-2-methylbenzamide]"
6,< 1,"CCNC(=O)c1ccc(-c2cnc3c(NCCC(F)(F)F)cc(Oc4ccc(OC)c(F)c4)nn23)cc1C [Example 604, N-ethyl-4-{6-(3-fluoro-4-methoxyphenoxy)-8-[(3,3,3-trifluoropropyl)a-mino]imidazo[1,2-b]pyridazin-3-yl}-2-methylbenzamide]"
7,3.9,"CCNC(=O)c1ccc(-c2cnc3c(NCCOC)cc(Oc4ccc(OC)cc4F)nn23)cc1C [Example 608, N-ethyl-4-{6-(2-fluoro-4-methoxyphenoxy)-8-[(2-methoxyethyl)a-mino]imidazo[1,2-b]pyridazin-3-yl}-2-methylbenzamide]"
8,2.9,"CCNC(=O)c1ccc(-c2cnc3c(NCCOC)cc(Oc4cc(F)ccc4C)nn23)cc1C [Example 609, N-ethyl-4-{6-(5-fluoro-2-methylphenoxy)-8-[(2-methoxyethyl)a-mino]imidazo[1,2-b]pyridazin-3-yl}-2-methylbenzamide]"

# System: Hepatocytes from Han Wistar rats
# Assay: In vitro metabolic stability in rat hepatocytes (calculation of hepatic in vivo blood clearance and Fmax)
# Format: in vitro ADME
# Conditions: maximal oral bioavailability calculated from half-life in rat hepatocytes, 1 μM test compound
# Procedure: Investigation of In Vitro Metabolic Stability in Rat Hepatocytes (Including Calculation of Hepatic In Vivo Blood Clearance (CL))
# Hepatocytes from Han Wistar rats were isolated via a 2-step perfusion method. After perfusion, the liver was carefully removed from the rat: the liver capsule was opened and the hepatocytes were gently shaken out into a Petri dish with ice-cold WME. The resulting cell suspension was filtered through sterile gaze in 50 ml falcon tubes and centrifuged at 50×g for 3 min at room temperature. The cell pellet was resuspended in 30 ml WME and centrifuged through a Percoll® gradient for 2 times at 100×g. The hepatocytes were washed again with Williams' medium E (WME) and resuspended in medium containing 5% FCS. Cell viability was determined by trypan blue exclusion.
# For the metabolic stability assay liver cells were distributed in WME containing 5% FCS to glass vials at a density of 1.0×10^6 vital cells/ml. The test compound was added to a final concentration of 1 μM. During incubation, the hepatocyte suspensions were continuously shaken and aliquots were taken at 2, 8, 16, 30, 45 and 90 min, to which equal volumes of cold methanol were immediately added. Samples were frozen at −20° C. over night, after subsequently centrifuged for 15 minutes at 3000 rpm and the supernatant was analyzed with an Agilent 1200 HPLC-system with LCMS/MS detection.
# The half-life of a test compound was determined from the concentration-time plot. From the half-life the intrinsic clearances were calculated. Together with the additional parameters liver blood flow, amount of liver cells in vivo and in vitro. The hepatic in vivo blood clearance (CL) and the maximal oral bioavailability (Fmax) was calculated. The following parameter values were used: Liver blood flow—4.2 L/h/kg rat; specific liver weight—32 g/kg rat body weight; liver cells in vivo—1.1×10^8 cells/g liver, liver cells in vitro—0.5×10^6/ml.
row,Compound,Fmax [%]
1,"Cc1cc(-c2cnc3c(NCC4CCOCC4)cc(Oc4cccc(F)c4)nn23)ccc1C(=O)NC1CC1 [Example 323, N-cyclopropyl-4-{6-(3-fluorophenoxy)-8-[(tetra-hydro-2H-pyran-4-yl-methyl)amino]imidazo[1,2-b]pyridazin-3-yl}-2-methylbenzamide]",31
2,"COc1ccc(Oc2cc(NCC3CCOCC3)c3ncc(-c4ccc(C(=O)NC5CC5)cc4)n3n2)c(F)c1 [Example 444, N-cyclopropyl-4-{6-(2-fluoro-4-methoxyphenoxy)-8-[(tetrahydro-2H-pyran-4-ylmethyl)amino]imidazo[1,2-b]pyridazin-3-yl}benzamide]",22

# Further lines, results first:
row,Fmax [%],Compound
1,56,"Cc1cc(-c2cnc3c(NCCC(F)(F)F)cc(Oc4cccc(F)c4)nn23)ccc1C(=O)NC1CC1 [Example 80, N-cyclopropyl-4-{6-(3-fluorophenoxy)-8-[(3,3,3-trifluoropropyl)amino]imidazo[1,2-b]pyridazin-3-yl}-2-methylbenzamide]"
2,7,"O=C(NC1CC1)c1ccc(-c2cnc3c(NCCC(F)(F)F)cc(Oc4cccc(F)c4)nn23)cc1 [Example 463, N-cyclopropyl-4-{6-(3-fluorophenoxy)-8-[(3,3,3-trifluoropropyl)amino]imidazo[1,2-b]pyridazin-3-yl}benzamide]"

# Same assay, conditions: relative increase of Fmax (rat hepatocytes) against the comparison compound of the same table
row,increase of metabolic stability [%],Compound
1,81,"Cc1cc(-c2cnc3c(NCCC(F)(F)F)cc(Oc4cccc(F)c4)nn23)ccc1C(=O)NC1CC1 [Example 80, N-cyclopropyl-4-{6-(3-fluorophenoxy)-8-[(3,3,3-trifluoropropyl)amino]imidazo[1,2-b]pyridazin-3-yl}-2-methylbenzamide]"

# Reference: patent US9255100B2 (BAYER INTELLECTUAL PROPERTY GMBH, priority 2010, dated 2016)
